Each molecule was assayed against GABAA receptor ([35S]-TBPS binding, rat brain cortical membranes) (assay: Steroid inhibition of [35S]-TBPS binding). Settings: Table II-2, 3 nM [35S]-TBPS, in the presence of 5 mM GABA, read-out: TBPS IC50.
Method: [^35S]-t-Butylbicyclophosphorothionate (TBPS) binding assays using rat brain cortical membranes in the presence of 5 mM GABA has been described (Gee et al, J. Pharmacol. Exp. Ther. 1987, 241, 346-353; Hawkinson et al, Mol. Pharmacol. 1994, 46, 977-985; Lewin, A. H et al., Mol. Pharmacol. 1989, 35, 189-194).
Briefly, cortices are rapidly removed following decapitation of carbon dioxide-anesthetized Sprague-Dawley rats (200-250 g). The cortices are homogenized in 10 volumes of ice-cold 0.32 M sucrose using a glass/teflon homogenizer and centrifuged at 1500×g for 10 min at 4° C. The resultant supernatants are centrifuged at 10,000×g for 20 min at 4° C. to obtain the P2 pellets. The P2 pellets are resuspended in 200 mM NaCl/50 mM Na—K phosphate pH 7.4 buffer and centrifuged at 10,000×g for 10 min at 4° C. This washing procedure is repeated twice and the pellets are resuspended in 10 volumes of buffer. Aliquots ([…]) of the membrane suspensions are incubated with 3 nM [^35S]-TBPS and […] aliquots of test drug dissolved in dimethyl sulfoxide (DMSO) (final 0.5%) in the presence of 5 mM GABA. The incubation is brought to a final volume of 1.0 mL with buffer. Nonspecific binding is determined in the presence of […] and ranged from 15 to 25%. Following a 90 min incubation at room temp, the assays are terminated by filtration through glass fiber filters (Schleicher and Schuell No. 32) using a cell harvester (Brandel) and rinsed three times with ice-cold buffer. Filter bound radioactivity is measured by liquid scintillation spectrometry. Non-linear curve fitting of the overall data for each drug averaged for each concentration is done using Prism (GraphPad). […] The concentration of test compound producing 50% inhibition (IC50) of specific binding and the maximal extent of inhibition (Imax) are determined for the individual experiments with the same model used for the overall data and then the means±SEM.s of the individual experiments are calculated.
Various compounds are or can be screened to determine their potential as modulators of [^35S]-TBPS binding in vitro. These assays are or can be performed in accordance with the above.
With `CCOC[C@@]1(O)CC[C@@]2(CC)[C@H](CC[C@H]3[C@@H]4CC[C@H](C(=O)Nc5ccc(C#N)cc5C)[C@@]4(C)CC[C@@H]32)C1` [II-43, (3R,5R,8S,9S,10S,13S,14S,17S)-N-(4-cyano-2-methylphenyl)-3-(ethoxymethyl)-10-ethyl-3-hydroxy-13-methylhexadecahydro-1H-cyclopenta[a]phenanthrene-17-carboxamide] the IC50 was < 10 nM.
For `CCOC[C@@]1(O)CC[C@@]2(CC)[C@H](CC[C@H]3[C@@H]4CC[C@H](C(=O)N5CCCC[C@@H]5C)[C@@]4(C)CC[C@@H]32)C1` [II-44, ((3R,5R,85,95,10S,13S,14S,17S)-3-(ethoxymethyl)-10-ethyl-3-hydroxy-13-methylhexadecahydro-1H-cyclopenta[a]phenanthren-17-yl)((S)-2-methylpiperidin-1-yl)methanone], the IC50 was 100 to 1000 nM.
In the case of `CCOC[C@@]1(O)CC[C@@]2(CC)[C@H](CC[C@H]3[C@@H]4CC[C@H](C(=O)N5CCCC[C@H]5C)[C@@]4(C)CC[C@@H]32)C1` [II-45, ((3R,5R,8S,9S,10S,13S,14S,17S)-3-(ethoxymethyl)-10-ethyl-3-hydroxy-13-methylhexadecahydro-1H-cyclopenta[a]phenanthren-17-yl)((R)-2-methylpiperidin-1-yl)methanone], the IC50 is reported as 10 to 100 nM.
For `CCOC[C@@]1(O)CC[C@@]2(CC)[C@H](CC[C@H]3[C@@H]4CC[C@H](C(=O)Nc5ccccc5)[C@@]4(C)CC[C@@H]32)C1` [II-46, (3R,5R,85,95,10S,13S,14S,17S)-3-(ethoxymethyl)-10-ethyl-3-hydroxy-13-methyl-N-phenylhexadecahydro-1H-cyclopenta[a]phenanthrene-17-carboxamide], the IC50 was 10 to 100 nM.
In the case of `CCOC[C@@]1(O)CC[C@@]2(CC)[C@H](CC[C@H]3[C@@H]4CC[C@H](C(=O)Nc5ccccc5C)[C@@]4(C)CC[C@@H]32)C1` [II-47, (3R,5R,8S,9S,10S,13S,14S,17S)-3-(ethoxymethyl)-10-ethyl-3-hydroxy-13-methyl-N-(o-tolyl)hexadecahydro-1H-cyclopenta[a]phenanthrene-17-carboxamide], the IC50 is reported as < 10 nM.
Work on `CCOC[C@@]1(O)CC[C@@]2(CC)[C@H](CC[C@H]3[C@@H]4CC[C@H](C(N)=O)[C@@]4(C)CC[C@@H]32)C1` [II-48, (3R,5R,8S,9S,10S,13S,14S,17S)-3-(ethoxymethyl)-10-ethyl-3-hydroxy-13-methylhexadecahydro-1H-cyclopenta[a]phenanthrene-17-carboxamide] yielded an IC50 of 100 to 1000 nM.
In the case of `CCOC[C@@]1(O)CC[C@@]2(CC)[C@H](CC[C@H]3[C@@H]4CC[C@H](C(=O)N5CCCC[C@@H]5c5ccc(F)cc5)[C@@]4(C)CC[C@@H]32)C1` [II-50, ((3R,5R,8S,9S,10S,13S,14S,17S)-3-(ethoxymethyl)-10-ethyl-3-hydroxy-13-methylhexadecahydro-1H-cyclopenta[a]phenanthren-17-yl)((R)-2-(4-fluorophenyl)piperidin-1-yl)methanone], the IC50 is reported as 100 to 1000 nM.
For `CCOC[C@@]1(O)CC[C@@]2(CC)[C@H](CC[C@H]3[C@@H]4CC[C@H](C(=O)N5CCCC[C@H]5c5ccc(F)cc5)[C@@]4(C)CC[C@@H]32)C1` [II-51, ((3R,5R,8S,9S,10S,13S,14S,17S)-3-(ethoxymethyl)-10-ethyl-3-hydroxy-13-methylhexadecahydro-1H-cyclopenta[a]phenanthren-17-yl)((S)-2-(4-fluorophenyl)piperidine-1-yl)methanone], the IC50 was 10 to 100 nM.
Work on `CCOC[C@@]1(O)CC[C@@]2(CC)[C@@H](CC[C@H]3[C@@H]4CC[C@H](C(=O)Nc5ccc(C#N)cc5C)[C@@]4(C)CC[C@@H]32)C1` [II-63] yielded an IC50 of 10 to 100 nM.
`CCOC[C@@]1(O)CC[C@@]2(CC)[C@H](CC[C@H]3[C@@H]4CC[C@H](C(=O)Cn5nccn5)[C@@]4(C)CC[C@@H]32)C1` [II-75, 1-((3R,5R,8S,9S,10S,13S,14S,17S)-3-(ethoxymethyl)-10-ethyl-3-hydroxy-13-methylhexadecahydro-1H-cyclopenta[a]phenanthren-17-yl)-2-(2H-1,2,3-triazole-2-yl)ethan-1-one] gave an IC50 of 10 to 100 nM.
Work on `CCOC[C@@]1(O)CC[C@@]2(CC)[C@H](CC[C@H]3[C@@H]4CC[C@H](C(=O)Cn5ccnn5)[C@@]4(C)CC[C@@H]32)C1` [II-76, 1-((3R,5R,8S,9S,10S,13S,14S,17S)-3-(ethoxymethyl)-10-ethyl-3-hydroxy-13-methylhexadecahydro-1H-cyclopenta[a]phenanthren-17-yl)-2-(1H-1,2,3-triazol-1-yl)ethan-1-one] yielded an IC50 of 10 to 100 nM.
With `CCOC[C@@]1(O)CC[C@@]2(CC)[C@@H](CC[C@H]3[C@@H]4CC[C@H](C(=O)Cn5nnnc5C)[C@@]4(C)CC[C@@H]32)C1` [II-78, 1-((3R,5S,8S,9S,10S,13S,14S,17S)-3-(ethoxymethyl)-10-ethyl-3-hydroxy-13-methylhexadecahydro-1H-cyclopenta[a]phenanthren-17-yl)-2-(5-methyl-1H-tetrazol-1-yl)ethan-1-one] the IC50 was 100 to 1000 nM.
In the case of `CCOC[C@@]1(O)CC[C@@]2(CC)[C@H](CC[C@H]3[C@@H]4CC[C@H](C(=O)Cn5ccc(C#N)n5)[C@@]4(C)CC[C@@H]32)C1` [II-79, 1-(2-((3R,5R,8S,9S,10S,13S,14S,17S)-3-(ethoxymethyl)-10-ethyl-3-hydroxy-13-methylhexadecahydro-1H-cyclopenta[a]phenanthren-17-yl)-2-oxoethyl)-1H-pyrazole-3-carbonitrile], the IC50 is reported as < 10 nM.
Molecule `C=C[C@]12CC[C@@](C)(O)C[C@@H]1CC[C@H]1[C@@H]3CC[C@H](C(C)=O)[C@@]3(C)CC[C@@H]12` [II-A4, 1((3R,5S,8S,9S,10R,13S,14S,17S)-3-hydroxy-3,13-dimethyl-10-vinylhexadecahydro-1H-cyclopenta[a]phenanthren-17-yl)ethan-1-one] has an IC50 of 10 to 100 nM.
Work on `CC[C@]12CC[C@@](C)(O)C[C@@H]1CC[C@H]1[C@@H]3CC[C@H](C(C)=O)[C@@]3(C)CC[C@@H]12` [II-A5, 1-((3R,5S,8S,9S,10S,13S,14S,17S)-10-ethyl-3-hydroxy-3,13-dimethylhexadecahydro-1H-cyclopenta [a]phenanthren-17-yl)ethan-1-one] yielded an IC50 of 10 to 100 nM.
Molecule `CC[C@]12CC[C@@](C)(O)C[C@@H]1CC[C@H]1[C@@H]3CC[C@H](C(=O)Cn4cccn4)[C@@]3(C)CC[C@@H]12` [II-A7, 1-((3R,5S,8S,9S,10S,13S,14S,17S)-10-ethyl-3-hydroxy-3,13-dimethylhexadecahydro-1H-cyclopenta [a]phenanthren-17-yl)-2-(1H-pyrazol-1-yl)ethan-1-one] has an IC50 of 10 to 100 nM.
With `CC[C@]12CC[C@@](C)(O)C[C@@H]1CC[C@H]1[C@@H]3CC[C@H](C(=O)Cn4ccnn4)[C@@]3(C)CC[C@@H]12` [II-A8] the IC50 was < 10 nM.
In the case of `CC[C@]12CC[C@@](C)(O)C[C@@H]1CC[C@H]1[C@@H]3CC[C@H](C(=O)Cn4nccn4)[C@@]3(C)CC[C@@H]12` [II-A8a], the IC50 is reported as 10 to 100 nM.
For `CC[C@]12CC[C@@](C)(O)C[C@@H]1CC[C@H]1[C@@H]3CC[C@H](C(=O)CN4CCOCC4)[C@@]3(C)CC[C@@H]12` [II-A9, 1-((3R,5S,8S,9S,10S,13S,14S,17S)-10-ethyl-3-hydroxy-3,13-dimethylhexadecahydro-1H-cyclopenta[a]phenanthren-17-yl)-2-morpholinoethan-1-one], the IC50 was 10 to 100 nM.
`CC[C@]12CC[C@@](C)(O)C[C@@H]1CC[C@H]1[C@@H]3CC[C@H](C(=O)CN4CCN(S(C)(=O)=O)CC4)[C@@]3(C)CC[C@@H]12` [II-A10, 1-((3R,5S,8S,9S,10S,13S,14S,17S)-10-ethyl-3-hydroxy-3,13-dimethylhexadecahydro-1H-cyclopenta [a]phenanthren-17-yl)-2-(4-(methylsulfonyl)piperazin-1-yl)ethan-1-one] was tested, and the IC50 was 10 to 100 nM.
With `CC[C@]12CC[C@@](C)(O)C[C@@H]1CC[C@H]1[C@@H]3CC[C@H](C(=O)CO)[C@@]3(C)CC[C@@H]12` [II-A11, 1-((3R,5S,8S,9S,10S,13S,14S,17S)-10-ethyl-3-hydroxy-3,13-dimethylhexadecahydro-1H-cyclopenta[a]phenanthren-17-yl)-2-hydroxyethan-1-one] the IC50 was 10 to 100 nM.
`CC[C@]12CC[C@](O)(COC)C[C@H]1CC[C@H]1[C@@H]3CC[C@H](C(=O)N4CCCC[C@@H]4C)[C@@]3(C)CC[C@@H]12` [II-B11, ((3R,5R,8S,9S,10S,13S,14S,17S)-10-ethyl-3-hydroxy-3-(methoxymethyl)-13-methylhexadecahydro-1H-cyclopenta[a]phenanthren-17-yl)((S)-2-methylpiperidin-1-yl)methanone] was tested, and the IC50 was 10 to 100 nM.

Reference: patent US20210101928A1 (Sage Therapeutics, Inc., priority 2017, published 2021)
